Laboratory results from patent EP4810499A1, “TREATMENT OF BEHÇET'S DISEASE” (Ganzhou Hemay Pharmaceutical, Co., Ltd, priority 2023, dated 2025).

Test system: healthy Chinese subjects
Test: Phase I clinical trial, multiple oral administrations (Example 6)
Format: in vivo, human
Details: 15 mg BID, 30 mg BID, 60 mg BID and 75 mg BID, 36 healthy Chinese subjects
Experimental: A Phase I clinical trial enrolling a total of 36 healthy Chinese subjects was conducted, with multiple oral administrations of the compound of Example 2 at doses of 15 mg BID, 30 mg BID, 60 mg BID and 75 mg BID, and placebo, respectively.

CCOc1cc([C@@H](CS(C)(=O)=O)N2C(=O)c3csc(NC(C)=O)c3C2=O)ccc1OC [Example 2, (S)-N-[5-[1-(3-ethoxy-4-methoxyphenyl)-2-(methylsulfonyl)ethyl]-4,6-dioxo-5,6-dihydro-4H-thieno[3,4-c]pyrrol-1-yl]acetamide]
safety and tolerability: favorable safety and good tolerability
